Assay results as given in patent US9499484B2, “Indole, indoline derivatives, compositions comprising them and uses thereof” (priority 2012, dated 2016).
Counter-ions that a name gives are not always drawn. Like-named read-outs stand apart in the source and are kept apart here.

Columns and labels:
[1] = Radical scavenging, glucose oxidase/luminol luminescence; format: biochemical; details: concentration reducing luminescence/radical by 50%; mean ± SD, three independent experiments
Description: A. Measurement of Radical Scavenging
A mixture comprising glucose oxidase (GO), luminol, sodium selenite [IV] ([…]) and cobalt [II] (Co^+2) all in Hank's Balance Salt Solution (HBSS) was used (Ginsburg et al, 2004). The production of H2O2 produces a burst of luminescence within 30-60 sec, which lasts for 7-10 min. The luminescence involves oxidation of SEL+5 to it SEL+6 and also the generation of oxidants, which are catalyzed by Co^+2. This method mimics infection and inflammation conditions in which there is an accumulation of several oxidant species. This method provides a source of several radicals. Reduction in luminescence by the compounds is due to their ability to sequester radicals and was measured after addition of several concentrations of each compound. The concentration of each compound that reduced the luminescence by 50% was calculated.

[2] = Radical scavenging, Sin1; format: biochemical; details: mean ± SD, three independent experiments
[3] = molecular target: T1, BuChE (UniProt P81908); format: biochemical, human or equine serum; details: read-out: IC50 BuChE 120 min; Table 3; 120 min incubation
T1 construct: 120 min incubation; BuChE IC50
Description: (§1) B. Measurement of Acetylcholinesterase (AChE) and Butylcholinesterase (BuChE) Inhibition In Vitro
(§2) The enzyme was incubated at 37° C. with 6-10 concentrations of the compounds tested and samples were collected at 15, 30, 60 and 120 min Aliquots were transferred to an Elisa multiscan microplate reader (Labsystems) at 15-60 sec time intervals for the determination of residual AChE activity, with Ascent PC software. […] The % inhibition of AChE by each concentration was calculated by comparison with the activity of the enzyme in the absence of drug. […] BuChE-inhibitory activity was determined as described above using BuChE (Sigma Israel) with butylthiocholine iodide (BuTh) 0.075M as a substrate.

[4] = test system: NO, BV2 mouse microglial cells; test: NO reduction in LPS-stimulated BV2 microglia; format: cell-based; details: for Reduction in NO levels by at >20%, BV2 Microglia range: concentration range, None = no reduction up till 100 nM
Description: (§3) The BV2 mouse microglial cells were created by infecting primary mouse microglia with v-raf/v-myc oncogen-carrying retrovirus and donated by Dr. Sigal Fleisher—Berkovich (Ben-Gurion University of the Negev). The cells were cultured in RPMI 1640 containing 0.4 mM L-Glutamine, 10% FCS, 100 units/ml penicillin, 100 μg/ml streptomycin and maintained in a humidified incubator at 37° C. with 5% CO2. For measurement of the effect of compounds on the release of NO the cells were seeded in a density of 80,000 cells/ml and confluence of about 60%, and incubated with test compounds (in the absence of FCS) for […] All the medium was removed and fresh medium containing FCS and LPS (10 μg/ml) added and the cells maintained at 37° C. for 24 h. The release of NO into the medium was determined by measurement of nitrite levels using Griess reagent reaction. For measurement of protein levels of cytokines cells were seeded in a density of 80,000 and incubated with test compounds (in the absence of FCS) and then with LPS as described above. The medium was centrifuged and supernatants collected after 6 h for TNF-α (Biolegend) and after 20 h for IL-6 (Biolegend).

[5] = test system: TNF-α, BV2 mouse microglial cells; test: TNF-α reduction in LPS-stimulated BV2 microglia; format: cell-based; details: for Reduction in TNF-α levels, BV2 Microglia range: concentration range, None = no reduction up till 100 nM
Description: as §3

[6] = test system: NO, RAW 264.7 cells; test: NO reduction in LPS-stimulated RAW 264.7 macrophages; format: cell-based, mouse
[7] = test system: TNF-α, RAW 264.7 cells; test: TNF-α reduction in LPS-stimulated RAW 264.7 macrophages; format: cell-based, mouse
[8] = Fall in body temperature in rats; format: in vivo, rat; details: ip injection of two doses
Description: F. Temperature Measurements in Rats
Monitoring body temperature at different times after drug administration enables one to assess in vivo both the extent of drug effect and its duration in the same group of rats. Test compounds or saline were administrated by ip injection or by gavage to female Wistar rats aged 3-4 months. Body temperature was measured rectally by means of a thermocouple probe, before and every 30 min after drug administration until this returned to pre-injection values. The change in body temperature induced by the drug was computed for each dose at each time point in comparison with the temperature prior to drug injection.

[9] = test system: ChE (AChE, BuChE) in plasma, muscle, spleen, brain; details: for ChE inhibition in plasma, muscle, and spleen: after ip and or oral administration in mice
Description: E. Acetylcholinesterase (AChE) and Butylcholinesterase (BuChE) Inhibition Ex Vivo
Compounds of the invention or saline were administrated by intraperitoneal (ip) injection or gavage to groups of 6-7 male ICR or Balb C mice (5-6 weeks of age). The mice were sacrificed 15, 30, 60 or 120 min after drug administration and the brain (minus cerebellum), spleen, and muscle were rapidly removed, weighed and put on ice. Blood was also collected in heparinised tubes, centrifuged at 14000 rpm at room temperature for 4 mM to provide plasma. Phosphate buffer pH 7 was added to each tissue to produce concentrations of 1 mg/mL for brain and spleen and 8 mg/mL for muscle. The tissues were homogenised in cold phosphate buffer pH 7 containing 0.1% Triton and centrifuged at 14000 rpm. Aliquots of plasma and the supernatant of all tissues were incubated with AcTh or BuTh and DTNB in phosphate buffer pH 7 and the rate of development of the yellow colour was measured as described above. Enzyme activity was measured for each time and drug concentration and percent inhibition of the AChE or BuChE activity was calculated by comparison with that of control mice injected with saline. Results are represented as p moles acetylthiocholine or butythiocholine hydrolysed/min/gm tissue.

[10] = molecular target: T2, AChE (UniProt P23795); format: biochemical, human or bovine erythrocytes; details: Table 3; 120 min incubation; read-out: IC50 AChE 120 min
T2 sequence (P23795 1-613): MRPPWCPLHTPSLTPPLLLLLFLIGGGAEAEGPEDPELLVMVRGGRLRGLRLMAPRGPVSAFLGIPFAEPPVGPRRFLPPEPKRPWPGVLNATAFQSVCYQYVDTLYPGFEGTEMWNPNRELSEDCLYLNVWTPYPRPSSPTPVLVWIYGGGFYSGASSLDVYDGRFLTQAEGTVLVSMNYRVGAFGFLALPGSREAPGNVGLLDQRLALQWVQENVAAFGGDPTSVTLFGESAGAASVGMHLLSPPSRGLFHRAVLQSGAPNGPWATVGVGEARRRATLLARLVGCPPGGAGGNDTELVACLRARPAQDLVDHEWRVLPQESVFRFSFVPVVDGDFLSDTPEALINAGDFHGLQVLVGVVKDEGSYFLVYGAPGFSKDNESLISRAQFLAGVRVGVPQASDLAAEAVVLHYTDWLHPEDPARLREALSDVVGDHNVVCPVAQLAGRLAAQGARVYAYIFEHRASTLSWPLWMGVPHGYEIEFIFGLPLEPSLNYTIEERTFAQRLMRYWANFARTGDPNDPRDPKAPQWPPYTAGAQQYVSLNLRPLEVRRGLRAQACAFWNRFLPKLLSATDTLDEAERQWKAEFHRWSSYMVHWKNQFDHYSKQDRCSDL
Description: as §1, §2

[11] = test system: primary neurones in culture; details: Chyan et al., J. Biol. Chem. 1999; cited from earlier work
[12] = test system: conversion of MCI to AD; details: chronic treatment; cited from earlier work
[13] = test system: cytokine levels in spleen and brain; test: Anti-inflammatory activity in LPS-injected mice, cytokine protein levels; format: in vivo, mouse; details: 8 h after ip LPS 10 mg/kg, two doses
Description: G. Evaluation of Anti-Inflammatory Activity in Mice
For measurement of cytokine protein levels, mice were treated with saline or LPS as described above and sacrificed 4 h or 8 h after drug administration, the spleen and rapidly brain removed. The brain was separated into fore, mid and hind sections (minus cerebellum) and frozen in liquid nitrogen and stored at −80° C. until use. […] The supernatant was rapidly frozen in liquid nitrogen and stored until use at −80° C. Cytokines were detected by using Elisa kits (Biolegend) and protein determination performed with Bradford reagent (Bio-RAD, 500-0006).

[14] = test system: DNBS-induced colon inflammation; test: DNBS-induced colitis in rats (model of Crohn's disease); format: in vivo, rat; details: rectal 1 mg/kg (2.5 μmoles/kg) prior to and after DNBS
Description: H. Measurement of Effect of Compounds of the Invention in a Model of Crohn's Disease in Rats
Inflammation in the colon was induced in male rats of the Sabra strain (250-300 g) by intra-colonic administration of 1 mL of dinitrobenzensulfonic acid (DNBS) (35 mg/mL in ethanol 25% v/v) under isoflurane anaesthesia. The novel drugs (827B or 680D) or saline was given rectally 1 h prior to DNBS at a dose of 1 mg/kg (2.5 μmoles/kg), and then twice daily at the same dose 12, 24, 36, 48, 60 and 72 h later. A group of control rats received saline rectally instead of DNBS and were pre-treated with saline instead of drug. The rats were anaesthetized by ip injection of a mixture of xylazine 3 mg, ketamine 85 mg, 1 mL/kg. The colon was exposed through a longitudinal abdominal incision. The area of ulceration was estimated. Segments of 10 cm of the colon were removed, cut open and rinsed with ice-cold saline. After cleaning with cold saline (0.9%) the wet weight of the colon was measured. Pieces of colon were analysed for activity of myeloperoxidase (MPO), a marker of neutrophil granulocyte infiltration into the inflamed colon tissue. One unit of MPO activity was defined as the amount of enzyme present that produced a change in absorbance of […] at 25° C. Results were quantified as U/g protein.

[15] = Mus musculus, RAW264.7, 24 h, read-out: Reduction in NO levels, RAW Macrophages % peak reduction
[16] = Mus musculus, RAW264.7, 6 h, read-out: Reduction in TNF-α levels, RAW Macrophages % peak reduction

Work on `CCN(C)C(=O)Oc1cccc2c1CCN2` [AN-854, Indolin-4-yl ethyl(methyl)carbamate hydrochloride] yielded an IC50 [1] of 1380 ± 100 nM, an IC50 [2] of 570 ± 10 nM and an IC50 [3] of 700 nM. For the same molecule, the “Reduction in NO levels by at >20%, BV2 Microglia range” value [4] was “None”, the “Reduction in TNF-α levels, BV2 Microglia % peak reduction” value [5] was 8.4 ± 1.7% and the “Reduction in TNF-α levels, BV2 Microglia range” value [5] was 100 nM. For the same molecule, the Emax [6, 15] was 45.2 ± 1.4%, the Emax [7, 16] was 41.1 ± 3.8% and the “fall in body temperature in rats (FIG. 4)” value [8] was “fall in body temperature”. For the same molecule, the “inhibited ChE in the mouse brain” value ([9]; 50 μmoles/kg) was 30% and the “ChE inhibition in plasma, muscle, and spleen” value [9] was “inhibited ChE”.

Molecule `CCN(C)C(=O)Oc1cccc2c1C(CCC(=O)O)CN2` (centres unmarked) [AN-850, hydrochloride] has an IC50 [1] of 1590 ± 390 nM, an IC50 [10] of 19 µM and an IC50 [3] of 300 nM. The “Reduction in NO levels, BV2 Microglia % peak reduction” value [4] was 37.6 ± 5.0%, the “Reduction in NO levels by at >20%, BV2 Microglia range” value [4] was 10^−2-100 nM and the “Reduction in TNF-α levels, BV2 Microglia % peak reduction” value [5] was 30.5 ± 0.6%. For the same molecule, the “Reduction in TNF-α levels, BV2 Microglia range” value [5] was 10^−3-100 nM, the “Reduction in TNF-α levels, RAW Macrophages range” value ([7]; concentration range; None = no reduction up till 100 nM) was “None” and the “ChE inhibition in plasma, muscle, and spleen” value [9] was “inhibited ChE”.

In the case of `O=C(O)CCc1c[nH]c2ccccc12` [IPA, 3-indole-propionic acid], the “protection of primary neurones against oxidative damage induced by beta amyloid” value [11] is given as “protects primary neurones in culture against oxidative damage induced by beta amyloid”.

In the case of `COC(=O)CCC1CNc2cccc(O)c21` (centres unmarked) [AN-832, Methyl 3-(4-hydroxyindolin-3-yl)propanoate hydrochloride], the IC50 [1] is reported as 670 ± 50 nM, the IC50 [2] is reported as 3540 ± 210 nM and the “Reduction in NO levels by at >20%, BV2 Microglia range” value [4] is reported as “None”. The “Reduction in TNF-α levels, BV2 Microglia % peak reduction” value [5] was 38.2 ± 3.2%, the “Reduction in TNF-α levels, BV2 Microglia range” value [5] was 10^−1-100 nM and the Emax ([6]; Mus musculus, RAW264.7, 24 h; read-out: Reduction in NO levels, RAW Macrophages % peak reduction) was 46.1 ± 3%. For the same molecule, the “inhibition of the level of TNF-α induced in RAW cells by LPS (FIG. 3)” value [7] was “inhibition” and the Emax ([7]; Mus musculus, RAW264.7, 6 h; read-out: Reduction in TNF-α levels, RAW Macrophages % peak reduction) was 39.2 ± 2.6%.

In the case of `COc1cc2c(cc1OC)C(=O)C(CC1CCN(Cc3ccccc3)CC1)C2` (centres unmarked) [donepezil], the “proportion of MCI patients converting to AD” value [12] is listed as “did not reduce the proportion converting to AD”.

With `CCN(C)C(=O)Oc1ccc2c(c1)NCC2CCC(=O)OC.CS(=O)(=O)O` (centres unmarked) [AN-680D, Methyl 3-(6-((ethyl(methyl)carbamoyl)oxy)indolin-3-yl)propanoate methanesulfonate] the “Reduction in NO levels, BV2 Microglia % peak reduction” value [4] was 37.1 ± 5.3%, the “Reduction in NO levels by at >20%, BV2 Microglia range” value [4] was 10^−3-100 nM and the Emax [6, 15] was 47.8 ± 1.8%. The “reduction in cytokine levels in cerebral cortex (FIG. 6B)” value [13] was “reduction”, the “reduction in cytokine levels in spleen (FIG. 6A)” value [13] was “reduction” and the “reduced MPO activity” value [14] was 80%. The reduced colon weight [14] was 30%, the “reduced the area of colonic ulceration” value [14] was 95% and the “inhibition of ChE in mouse brain” value ([9]; 100 μmoles/kg) was “no significant inhibition”.

Molecule `CCN(C)C(=O)Oc1cccc2c1C(CCN)CN2` (centres unmarked) [AN-890, 3-(2-Aminoethyl)indolin-4-yl ethyl(methyl)carbamate dihydrochloride] has an IC50 [1] of 70 ± 10 nM, an IC50 [2] of 2130 ± 180 nM and an IC50 [3] of 200 nM. The “Reduction in NO levels by at >20%, BV2 Microglia range” value [4] was “None”, the “Reduction in TNF-α levels, BV2 Microglia range” value [5] was “None” and the Emax [6, 15] was 54.6 ± 2.3%. For the same molecule, the “inhibition of the level of TNF-α induced in RAW cells by LPS (FIG. 3)” value [7] was “inhibition”, the Emax [7, 16] was 36.6 ± 4.1% and the “ChE inhibition in plasma, muscle, and spleen” value [9] was “inhibited ChE”. The “ChE inhibition in skeletal muscle” value ([9]; mice, 1 mg/kg) was “little or no effect” and the “ChE inhibition in plasma and spleen” value ([9]; mice, 1 mg/kg, ip and oral, 30 to 120 min) was “inhibited ChE in plasma and spleen equally well after ip and oral administration”.
